Target: T1, TNF-α (Homo sapiens, UniProt P01375)
T1 construct: purchased R&D 210-TA-020/CF
Experiment: TNF-α Induced HEK Blue Cellular Assay
Format: cell-based
Details: HEK Blue TNFα reporter cells stimulated with TNF-α, 24 hrs, secreted alkaline phosphatase (QUANTI-Blue, 620 nm)
Experimental: (§1) Test articles were diluted in DMSO and serially diluted into 384 well assay plate (Corning 3765), at final concentrations ranging from […] to 0.5 nM. HEK Blue™ TNFα reporter cells were added at a final density of 10,000 cell per well in assay media [DMEM (Gibco, cat #21063-029), 10% fetal bovine serum (ExcelBio, cat #FND500), 1% Penicillin-Streptomycin (Solarbio, cat #P1400-100]. TNF-α (R&D 210-TA-020/CF) was then added to the assay plate at a final concentration of […]. This plate was then incubated for 24 hrs at 37° C. and 5% CO2. Secreted alkaline phosphatase expression was then measured using QUANTI- Blue™ (Invivogen), according to manufacturer instructions and read on an Envision microplate reader at 620 nm.
Inhibition data for test compound over a range of concentration was plotted as percentage inhibition of the test compound (100%=maximum inhibition). IC50 values were determined after correcting for background [(sample read-mean of low control)/(mean of high control-mean of low control)] where by the low control is DMSO without stimulation and high control is DMSO with stimulation. The IC50 is defined as the concentration of test compound which produces 50% inhibition and was quantified using the 4 parameter logistic equation to fit the data.

T1 sequence (P01375 77-233 limits assumed): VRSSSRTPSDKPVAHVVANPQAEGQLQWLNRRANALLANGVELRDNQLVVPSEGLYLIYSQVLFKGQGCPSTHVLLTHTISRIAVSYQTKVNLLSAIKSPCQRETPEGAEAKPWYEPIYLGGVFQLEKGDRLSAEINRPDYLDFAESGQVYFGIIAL

IC50, ≤ 100 nM:
[2H]C([2H])([2H])N1C(=O)c2cccc(Cl)c2[C@H]2C[C@@H]1c1nc3ccc(-c4ccc(P(C)(C)=O)c(F)c4)cc3n12 [Example 1, (7R,14R)-1-chloro-11-(4-(dimethylphosphoryl)-3-fluorophenyl)-6-(methyl-d3)-6,7-dihydro-7,14-methanobenzo[f]benzo[4,5]imidazo[1,2-a][1,4]diazocin-5(14H)-one]
[2H]C([2H])([2H])N1C(=O)c2cccc(Cl)c2[C@H]2C[C@@H]1c1nc3ccc(-c4ccc(P(C)(C)=O)nc4)cc3n12 [Example 2, (7R,14R)-1-chloro-11-(6-(dimethylphosphoryl)pyridin-3-yl)-6-(methyl-d3)-6,7-dihydro-7,14-methanobenzo[f]benzo[4,5]imidazo[1,2-a][1,4]diazocin-5(14H)-one]
[2H]C([2H])([2H])N1C(=O)c2c(C)ccc(Cl)c2[C@H]2C[C@@H]1c1nc3ccc(-c4ccc(P(C)(C)=O)c(F)c4)cc3n12 [Example 3, (7R,14R)-1-chloro-11-(4-(dimethylphosphoryl)-3-fluorophenyl)-4-methyl-6-(methyl-d3)-6,7-dihydro-7,14-methanobenzo[f]benzo[4,5]imidazo[1,2-a][1,4]diazocin-5(14H)-one]
CP(C)(=O)c1ncc(-c2ccc3nc4n(c3c2)[C@@H]2C[C@H]4NC(=O)c3cccc(Cl)c32)cn1 [Example 4, (7R,14R)-1-chloro-11-(2-(dimethylphosphoryl)pyrimidin-5-yl)-6,7-dihydro-7,14-methanobenzo[f]benzo[4,5]imidazo[1,2-a][1,4]diazocin-5(14H)-one]
CP(C)(=O)c1ccc(-c2ccc3nc4n(c3c2)[C@@H]2C[C@H]4NC(=O)c3cccc(Cl)c32)cn1 [Example 5, (7R,14R)-1-chloro-11-(6-(dimethylphosphoryl)pyridin-3-yl)-6,7-dihydro-7,14-methanobenzo[f]benzo[4,5]imidazo[1,2-a][1,4]diazocin-5(14H)-one]
[2H]C([2H])([2H])N1C(=O)c2c(C)ccc(Cl)c2[C@H]2C[C@@H]1c1nc3ccc(-c4ccc(P(C)(C)=O)nc4)cc3n12 [Example 6, (7R,14R)-1-chloro-11-(6-(dimethylphosphoryl)pyridin-3-yl)-4-methyl-6-(methyl-d3)-6,7-dihydro-7,14-methanobenzo[f]benzo[4,5]imidazo[1,2-a][1,4]diazocin-5(14H)-one]

Target: T1, TNF-α
Experiment: TNF-α Induced THP 1 dual Cellular Assay
Format: cell-based
Details: THP1 dual cell reporter cells stimulated with TNF-α, 24 hrs, secreted alkaline phosphatase (QUANTI-Blue, 620 nm)
Experimental: as §1, with “THP1 dual cell” for “HEK Blue™ TNFα”, “QUANTI-Blue™” for “QUANTI- Blue™”
Inhibition data for test compound over a range of concentration was plotted as percentage inhibition of the test compound (100%=maximum inhibition). IC50 values were determined after correcting for background [(sample read-mean of low control)/(mean of high control-mean of low control)] whereby the low control is DMSO without stimulation and high control is DMSO with stimulation. The IC50 is defined as the concentration of test compound which produces 50% inhibition and was quantified using the 4-parameter logistic equation to fit the data.

IC50, ≤ 100 nM:
[2H]C([2H])([2H])N1C(=O)c2cc(F)cc(F)c2[C@H]2C[C@@H]1c1nc3ccc(-c4ccc(P(C)(C)=O)c(F)c4)cc3n12 [Example 13, (7R,14R)-11-(4-(dimethylphosphoryl)-3-fluorophenyl)-1,3-difluoro-6-(methyl-d3)-6,7-dihydro-7,14-methanobenzo[f]benzo[4,5]imidazo[1,2-a][1,4]diazocin-5(14H)-one]
[2H]C([2H])([2H])N1C(=O)c2cccc(F)c2[C@H]2C[C@@H]1c1nc3ccc(-c4ccc(P(C)(C)=O)c(F)c4F)cc3n12 [Example 14, (7R,14R)-11-(4-(dimethylphosphoryl)-2,3-difluorophenyl)-1-fluoro-6-(methyl-d3)-6,7-dihydro-7,14-methanobenzo[f]benzo[4,5]imidazo[1,2-a][1,4]diazocin-5(14H)-one]
[2H]C([2H])([2H])N1C(=O)c2ccc(F)c(F)c2[C@H]2C[C@@H]1c1nc3ccc(-c4ccc(P(C)(C)=O)c(F)c4)cc3n12 [Example 15, (7R,14R)-11-(4-(dimethylphosphoryl)-3-fluorophenyl)-1,2-difluoro-6-(methyl-d3)-6,7-dihydro-7,14-methanobenzo[f]benzo[4,5]imidazo[1,2-a][1,4]diazocin-5(14H)-one]
[2H]C([2H])([2H])N1C(=O)c2cccc(F)c2[C@H]2C[C@@H]1c1nc3ccc(-c4ccc(P(C)(C)=O)cc4)cc3n12 [Example 16, (7R,14R)-11-(4-(dimethylphosphoryl)phenyl)-1-fluoro-6-(methyl-d3)-6,7-dihydro-7,14-methanobenzo[f]benzo[4,5]imidazo[1,2-a][1,4]diazocin-5(14H)-one]
[2H]C([2H])([2H])N1C(=O)c2cccc(F)c2[C@H]2C[C@@H]1c1nc3ccc(-c4ccc(P(C)(C)=O)cc4F)cc3n12 [Example 17, (7R,14R)-11-(4-(dimethylphosphoryl)-2-fluorophenyl)-1-fluoro-6-(methyl-d3)-6,7-dihydro-7,14-methanobenzo[f]benzo[4,5]imidazo[1,2-a][1,4]diazocin-5(14H)-one]
[2H]C([2H])([2H])N1C(=O)c2cccc(Br)c2[C@H]2C[C@@H]1c1nc3ccc(-c4ccc(P(C)(C)=O)c(F)c4)cc3n12 [Example 18, (7R,14R)-1-bromo-11-(4-(dimethylphosphoryl)-3-fluorophenyl)-6-(methyl-d3)-6,7-dihydro-7,14-methanobenzo[f]benzo[4,5]imidazo[1,2-a][1,4]diazocin-5(14H)-one]
[2H]C([2H])([2H])N1C(=O)c2cccc(Br)c2[C@H]2C[C@@H]1c1nc3ccc(-c4ccc(P(C)(C)=O)cc4F)cc3n12 [Example 19, (7R,14R)-1-bromo-11-(4-(dimethylphosphoryl)-2-fluorophenyl)-6-(methyl-d3)-6,7-dihydro-7,14-methanobenzo[f]benzo[4,5]imidazo[1,2-a][1,4]diazocin-5(14H)-one]
[2H]C([2H])([2H])N1C(=O)c2cccc(F)c2[C@H]2C[C@@H]1c1nc3cc(F)c(-c4ccc(P(C)(C)=O)cc4)cc3n12 [Example 20, (7R,14R)-11-(4-(dimethylphosphoryl)phenyl)-1,10-difluoro-6-(methyl-d3)-6,7-dihydro-7,14-methanobenzo[f]benzo[4,5]imidazo[1,2-a][1,4]diazocin-5(14H)-one]
[2H]C([2H])([2H])N1C(=O)c2cccc(F)c2[C@H]2C[C@@H]1c1nc3cc(F)c(-c4ccc(P(C)(C)=O)nc4)cc3n12 [Example 21, (7R,14R)-11-(6-(dimethylphosphoryl)pyridin-3-yl)-1,10-difluoro-6-(methyl-d3)-6,7-dihydro-7,14-methanobenzo[f]benzo[4,5]imidazo[1,2-a][1,4]diazocin-5(14H)-one]
[2H]C([2H])([2H])N1C(=O)c2cccc(F)c2[C@H]2C[C@]1(C)c1nc3ccc(-c4ccc(P(C)(C)=O)c(F)c4)cc3n12 [Example 22, (7R,14R)-11-(4-(dimethylphosphoryl)-3-fluorophenyl)-1-fluoro-7-methyl-6-(methyl-d3)-6,7-dihydro-7,14-methanobenzo[f]benzo[4,5]imidazo[1,2-a][1,4]diazocin-5(14H)-one]
[2H]C([2H])([2H])N1C(=O)c2cccc(F)c2[C@H]2C[C@@H]1c1nc3cc(F)c(-c4ccc(P(C)(C)=O)c(F)c4)cc3n12 [Example 23, (7R,14R)-11-(4-(dimethylphosphoryl)-3-fluorophenyl)-1,10-difluoro-6-(methyl-d3)-6,7-dihydro-7,14-methanobenzo[f]benzo[4,5]imidazo[1,2-a][1,4]diazocin-5(14H)-one]
[2H]C([2H])([2H])N1C(=O)c2cccc(F)c2[C@H]2C[C@@H]1c1nc3ccc(-c4ccc(P(C)(C)=O)c(N)c4)cc3n12 [Example 24, (7R,14R)-11-(3-amino-4-(dimethylphosphoryl)phenyl)-1-fluoro-6-(methyl-d3)-6,7-dihydro-7,14-methanobenzo[f]benzo[4,5]imidazo[1,2-a][1,4]diazocin-5(14H)-one]
[2H]C([2H])([2H])N1C(=O)c2cccc(F)c2[C@H]2C[C@@H]1c1nc3ccc(-c4ccc(P(C)(C)=O)c(NC)c4)cc3n12 [Example 25, (7R,14R)-11-(4-(dimethylphosphoryl)-3-(methylamino)phenyl)-1-fluoro-6-(methyl-d3)-6,7-dihydro-7,14-methanobenzo[f]benzo[4,5]imidazo[1,2-a][1,4]diazocin-5(14H)-one]

Source: patent publication US12691095B2, “Modulators of TNF-alpha activity” (Forward Therapeutics, Inc., priority 2024, dated 2026)
